pEC50: −log10 of the molar value.
target: T1, human OX2R (Homo sapiens, UniProt O43614); assay: Evaluation of OX2R agonist activity (intracellular calcium, CHO-K1 cells with forced expression of human OX2R); format: cell-based; settings: CHO-K1 cells expressing human OX2R; 100% = 5 µM of the reference compound; read-out: hOX2R EC50
T1 construct: host or cells: CHO-K1 (Chinese Hamster Ovary K1)
T1 sequence (O43614 1-444): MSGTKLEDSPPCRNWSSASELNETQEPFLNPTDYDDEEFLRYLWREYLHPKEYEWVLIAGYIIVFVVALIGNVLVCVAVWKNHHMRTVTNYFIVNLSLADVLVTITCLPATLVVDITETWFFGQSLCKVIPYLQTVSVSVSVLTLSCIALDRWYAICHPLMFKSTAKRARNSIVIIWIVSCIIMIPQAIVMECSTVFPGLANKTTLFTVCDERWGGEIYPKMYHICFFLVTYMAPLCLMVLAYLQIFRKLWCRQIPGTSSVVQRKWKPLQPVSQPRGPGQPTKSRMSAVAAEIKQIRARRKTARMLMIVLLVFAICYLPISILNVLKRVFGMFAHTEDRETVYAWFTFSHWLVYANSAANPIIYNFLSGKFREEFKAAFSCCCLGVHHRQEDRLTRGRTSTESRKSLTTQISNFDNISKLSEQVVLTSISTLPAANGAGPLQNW
Method: Evaluation of OX2R agonist activity
Chinese Hamster Ovary K1 (CHO-K1) cells (GenScript) with forced expression of human OX2R were seeded onto a 384 well microplate (Corning) at 7500 cells/well and cultured for 24 hours. 20 µL of the loading buffer (25 mM HEPES containing 1.25 mM of Probenecid and 2.5 µg/mL of Fluo 4-AM at final concentration, Hank's balanced salt solution, 0.06% Pluronic F-127, Quenching buffer) in the Calcium Kit II (DOJINDO LABORATORIES) was added, and the microplate was allowed to stand for 30 minutes. A reference compound (Example435 of WO 2019/027058, N-[(2S,3S)-2-[[3-(3,5-difluorophenyl)-2-fluoro-phenyl]methyl]-1-(2-hydroxy-2-methylpropanoyl)pyrrolidin-3-yl]ethanesulfonamide) or the test compound was added in 10 µL, and changes in intracellular calcium ion concentration were measured using FDSS7000EX (Hamamatsu Photonics K.K.) as a fluorescence intensity ratio obtained upon dual wavelength excitation at 480 nm and 540 nm. Note that the reference compound or test compound was dissolved in DMSO (final concentration of DMSO was 0.5%) and diluted with an assay buffer (20 mM HEPES, Hank's balanced salt solution, 0.1% BSA). The difference between the maximum and minimum fluorescence values between 5 and 7 seconds after the addition of the test compound or reference compound was used as the indicator. The value of wells to which the assay buffer containing no test compound was added was defined as 0%, and the value of wells to which 5 µM of the reference compound was added was defined as 100%. The 50% effective concentration (EC50 value) was determined from the values obtained when various concentrations of the test compound were added. […]

pEC50	Structure (SMILES)
7.55	C[C@@H](O)C(=O)N1C2CC(C2)[C@H](NS(C)(=O)=O)[C@@H]1Cc1cccc(-c2cccc(OC(F)(F)F)c2)c1F [Example 42, N-{(3S,4S)-3-{[2-Fluoro-3'-(trifluoromethoxy)[biphenyl]-3-yl]methyl}-2-[(2R)-2-hydroxypropanoyl]-2-azabicyclo[3.1.1]heptan-4-yl}methanesulfonamide]
7.31	C[C@@H](O)C(=O)N1C2CC(C2)[C@H](NS(C)(=O)=O)[C@@H]1Cc1cccc(-c2cccc(C3CC3)n2)c1F [Example 43, N-{(3S,4S)-3-[3-(6-Cyclopropylpyridin-2-yl)-2-fluorobenzyl]-2-[(2R)-2-hydroxypropanoyl]-2-azabicyclo[3.1.1]heptan-4-yl}methanesulfonamide]
7.66	C[C@@H](O)C(=O)N1C2CC(C2)[C@H](NS(=O)(=O)C2CC2)[C@@H]1Cc1cccc(-c2ccccc2)c1F [Example 44, N-{(3S,4S)-3-[(2-Fluoro[biphenyl]-3-yl)methyl]-2-[(2R)-2-hydroxypropanoyl]-2-azabicyclo[3.1.1]heptan-4-yl}cyclopropanesulfonamide]
6.94	O=C([C@H]1C[C@H]1F)N1C2CC(C2)[C@H](NS(=O)(=O)C2CC2)[C@@H]1Cc1cccc(-c2ccccc2)c1F [Example 45, N-[(3S,4S)-3-[(2-Fluoro[biphenyl]-3-yl)methyl]-2-{[(1R,2R)-2-fluorocyclopropyl]carbonyl}-2-azabicyclo[3.1.1]heptan-4-yl]cyclopropanesulfonamide]
6.97	CC(=O)N1C2CC(F)(C2)[C@H](NS(C)(=O)=O)[C@@H]1Cc1cccc(-c2cccc(Cl)c2)c1F [Example 46, N-{(3S,4R)-2-Acetyl-3-[(3'-chloro-2-fluoro[biphenyl]-3-yl)methyl]-5-fluoro-2-azabicyclo[3.1.1]heptan-4-yl}methanesulfonamide]
6.93	C[C@@H](O)C(=O)N1C2CC(C2)[C@H](NS(C)(=O)=O)[C@@H]1Cc1cccc(-c2cccc(C(F)F)n2)c1F [Example 47, N-{(3S,4S)-3-{3-[6-(Difluoromethyl)pyridin-2-yl]-2-fluorobenzyl}-2-[(2R)-2-hydroxypropanoyl]-2-azabicyclo[3.1.1]heptan-4-yl}methanesulfonamide]
7.48	CO[C@H](C)C(=O)N1C2CC(C2)[C@H](NS(C)(=O)=O)[C@@H]1Cc1cccc(-c2cc(F)cc(F)c2)c1F [Example 48, N-{(3S,4S)-2-[(2R)-2-Methoxypropanoyl]-3-[(2,3',5'-trifluoro[biphenyl]-3-yl)methyl]-2-azabicyclo[3.1.1]heptan-4-yl}methanesulfonamide]
7.70	CC(C)(O)C(=O)N1C2CC(F)(C2)[C@H](NS(C)(=O)=O)[C@@H]1Cc1cccc(-c2cccc(C(F)F)c2)c1F [Example 49, N-[(3S,4R)-3-{[3'-(Difluoromethyl)-2-fluoro[biphenyl]-3-yl]methyl}-5-fluoro-2-(2-hydroxy-2-methylpropanoyl)-2-azabicyclo[3.1.1]heptan-4-yl]methanesulfonamide]
7.39	CC(C)(O)C(=O)N1C2CC(F)(C2)[C@H](NS(C)(=O)=O)[C@@H]1Cc1cccc(-c2ccccc2)c1F [Example 50, N-[(3S,4R)-5-Fluoro-3-[(2-fluoro[biphenyl]-3-yl)methyl]-2-(2-hydroxy-2-methylpropanoyl)-2-azabicyclo[3.1.1]heptan-4-yl]methanesulfonamide]
7.48	CC(C)(O)C(=O)N1C2CC(C2)[C@H](NS(C)(=O)=O)[C@@H]1Cc1cccc(-c2cc(F)cc(C(F)F)c2)c1F [Example 51, N-[(3S,4S)-3-{[3'-(Difluoromethyl)-2,5'-difluoro[biphenyl]-3-yl]methyl}-2-(2-hydroxy-2-methylpropanoyl)-2-azabicyclo[3.1.1]heptan-4-yl]methanesulfonamide]
7.47	CC(C)(O)C(=O)N1C2CC(C2)[C@H](NS(C)(=O)=O)[C@@H]1Cc1cccc(-c2cc(F)cc(Cl)c2)c1F [Example 52, N-[(3S,4S)-3-[(3'-Chloro-2,5'-difluoro[biphenyl]-3-yl)methyl]-2-(2-hydroxy-2-methylpropanoyl)-2-azabicyclo[3.1.1]heptan-4-yl]methanesulfonamide]
6.23	CS(=O)(=O)N[C@@H]1[C@H](Cc2cccc(-c3ccccc3)c2F)N(C(=O)c2cocn2)C2CC1(F)C2 [Example 55, N-[(3S,4R)-5-Fluoro-3-[(2-fluoro[biphenyl]-3-yl)methyl]-2-(1,3-oxazol-4-ylcarbonyl)-2-azabicyclo[3.1.1]heptan-4-yl]methanesulfonamide]
6.61	CCC(=O)N1C2CC(C2)[C@H](NS(C)(=O)=O)[C@@H]1Cc1cccc(-c2ccccc2)c1F [Example 56, N-{(3S,4S)-3-[(2-Fluoro[biphenyl]-3-yl)methyl]-2-propanoyl-2-azabicyclo[3.1.1]heptan-4-yl}methanesulfonamide]
7.42	CC(C)C(=O)N1C2CC(C2)[C@H](NS(C)(=O)=O)[C@@H]1Cc1cccc(-c2ccccc2)c1F [Example 57, N-[(3S,4S)-3-[(2-Fluoro[biphenyl]-3-yl)methyl]-2-(2-methylpropanoyl)-2-azabicyclo[3.1.1]heptan-4-yl]methanesulfonamide]
7.39	CS(=O)(=O)N[C@H]1C2CC(C2)N(C(=O)[C@H](O)C2CC2)[C@H]1Cc1cccc(-c2ccccc2)c1F [Example 64, N-{(3S,4S)-2-[(2R)-2-Cyclopropyl-2-hydroxyacetyl]-3-[(2-fluoro[biphenyl]-3-yl)methyl]-2-azabicyclo[3.1.1]heptan-4-yl}methanesulfonamide]
6.41	CCOC(=O)N1C2CC(C2)[C@H](NS(C)(=O)=O)[C@@H]1Cc1cccc(-c2ccccc2)c1F [Example 65, Ethyl (3S,4S)-3-[(2-fluoro[biphenyl]-3-yl)methyl]-4-[(methylsulfonyl)amino]-2-azabicyclo[3.1.1]heptane-2-carboxylate]
7.24	CS(=O)(=O)N[C@@H]1[C@H](Cc2cccc(-c3ccccc3)c2F)N(C(=O)[C@@H]2C[C@@H]2F)C2CC1(F)C2 [Example 66, N-[(3S,4R)-5-Fluoro-3-[(2-fluoro[biphenyl]-3-yl)methyl]-2-{[(1S,2S)-2-fluorocyclopropyl]carbonyl}-2-azabicyclo[3.1.1]heptan-4-yl]methanesulfonamide]
7.43	C[C@@H](O)C(=O)N1C2CC(C2)[C@H](NS(C)(=O)=O)[C@@H]1Cc1cccc(-c2csc(Cl)c2)c1F [Example 68, N-{(3S,4S)-3-[3-(5-Chlorothiophen-3-yl)-2-fluorobenzyl]-2-[(2R)-2-hydroxypropanoyl]-2-azabicyclo[3.1.1]heptan-4-yl}methanesulfonamide]
7.46	CS(=O)(=O)N[C@@H]1[C@H](Cc2cccc(-c3ccccc3)c2F)N(C(=O)[C@H](O)C(F)(F)F)C2CC1(F)C2 [Example 69, N-{(3S,4R)-5-Fluoro-3-[(2-fluoro[biphenyl]-3-yl)methyl]-2-[(2S)-3,3,3-trifluoro-2-hydroxypropanoyl]-2-azabicyclo[3.1.1]heptan-4-yl}methanesulfonamide]
7.59	CS(=O)(=O)N[C@@H]1[C@H](Cc2cccc(-c3ccccc3)c2F)N(C(=O)[C@H]2CCO2)C2CC1(F)C2 [Example 70, N-{(3S,4R)-5-Fluoro-3-[(2-fluoro[biphenyl]-3-yl)methyl]-2-[(2R)-oxetan-2-ylcarbonyl]-2-azabicyclo[3.1.1]heptan-4-yl}methanesulfonamide]
7.41	CS(=O)(=O)N[C@@H]1[C@H](Cc2cccc(-c3ccccc3)c2F)N(C(=O)C2(O)CC2)C2CC1(F)C2 [Example 71, N-{(3S,4R)-5-Fluoro-3-[(2-fluoro[biphenyl]-3-yl)methyl]-2-[(1-hydroxycyclopropyl)carbonyl]-2-azabicyclo[3.1.1]heptan-4-yl}methanesulfonamide]

Structure (SMILES)	pEC50
[2H]c1c([2H])c([2H])c(-c2cccc(C[C@H]3[C@@H](NS(C)(=O)=O)C4CC(C4)N3C(=O)[C@@H](C)O)c2F)c([2H])c1[2H] [Example 54, N-{(3S,4S)-3-{[2-Fluoro(2',3',4',5',6'-^2H5)[biphenyl]-3-yl]methyl}-2-[(2R)-2-hydroxypropanoyl]-2-azabicyclo[3.1.1]heptan-4-yl}methanesulfonamide]	7.66
